Results taken from paper PMC11259170, “Small-molecule probe for IBD risk variant GPR65 I231L alters cytokine signaling networks through positive allosteric modulation” (Science Advances, 2024).
Read-outs that look alike come from different tables or passages of the source.

Experiments:
mGPR65 = target: T1, mGPR65 (Mus musculus, UniProt Q61038); assay: cAMP detection in HeLa expression cell line, mGPR65; format: cell-based; conditions: for Emax: HeLa, relative to 100uM forskolin (100%) and DMSO (0%), read-out: mGPR Max Activity %; for EC50: mGPR EC50 (uM); for cAMP activity, mGPR65 / activity for mGPR65 among prioritized molecules: pH 7.2; for activity for mGPR65 among prioritized molecules: 1.56 μM
T1 construct: expressed in transfected cells; host or cells: HeLa (ATCC CCL-2), lentiviral transduction, pLX317
T1 sequence (Q61038 whole entry): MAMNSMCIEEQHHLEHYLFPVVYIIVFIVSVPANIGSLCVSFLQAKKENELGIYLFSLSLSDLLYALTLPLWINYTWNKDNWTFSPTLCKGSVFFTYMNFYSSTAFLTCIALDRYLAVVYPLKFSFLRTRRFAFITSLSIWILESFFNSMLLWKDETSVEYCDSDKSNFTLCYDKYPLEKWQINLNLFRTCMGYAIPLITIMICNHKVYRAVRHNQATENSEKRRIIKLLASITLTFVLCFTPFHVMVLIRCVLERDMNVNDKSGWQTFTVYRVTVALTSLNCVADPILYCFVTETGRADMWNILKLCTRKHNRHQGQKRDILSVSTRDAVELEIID
How it was run: (§1)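 Compound was dispensed from a 10 mM DMSO stock, and puromycin-selected HeLa lines carrying lentiviral V5-tagged receptor were added at 1500 cells/well in pH 7.2 stimulation buffer. After 30 min stimulation at room temperature, cells were lysed and detection ran 1 h in the dark before cAMP TR-FRET reading.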

human GPR4 (hGPR4) = target: T2, human GPR4 (hGPR4) (Homo sapiens, UniProt P46093); assay: cAMP detection in HeLa expression cell line, hGPR4; format: cell-based; conditions: for EC50: pH 7.2, 30 min
T2 construct: expressed in transfected cells; host or cells: HeLa (ATCC CCL-2), lentiviral transduction, pLX317
T2 sequence (P46093 whole entry): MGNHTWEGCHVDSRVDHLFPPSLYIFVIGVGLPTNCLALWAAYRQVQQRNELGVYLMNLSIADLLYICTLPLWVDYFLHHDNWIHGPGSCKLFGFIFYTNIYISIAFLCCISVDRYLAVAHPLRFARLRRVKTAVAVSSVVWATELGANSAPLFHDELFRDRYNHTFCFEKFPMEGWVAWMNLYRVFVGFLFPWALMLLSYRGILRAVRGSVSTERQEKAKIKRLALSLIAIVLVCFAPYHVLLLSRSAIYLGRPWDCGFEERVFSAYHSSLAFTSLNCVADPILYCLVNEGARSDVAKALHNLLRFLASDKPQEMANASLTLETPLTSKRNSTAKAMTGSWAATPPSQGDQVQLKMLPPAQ
Protocol: (§2) HeLa stable expression cell lines were produced by lentiviral transduction. Briefly, lentiviral plasmids for each GPCR with a C-terminal V5 Tag ([…]) were made in a pLX317 backbone using competent Escherichia coli (New England Biolabs, C3050H). Lenti-X 293 T (Takara, 632810) cells were transfected with the lentiviral plasmids to produce virus. Low-passage HeLa cells (American Type Culture Collection, CCL-2) were then transduced with lentivirus. After 48 hours, HeLa cells were cultured under selection with puromycin (3 μg/ml) and allowed to recover and expand before storing stocks in liquid nitrogen.
(§3) cAMP was measured in cells using the Lance Ultra cAMP Kit. HeLa cells were cultured under puromycin (3 μg/ml) selection. One day before the experiment, cells were seeded in T75 flasks and allowed to adhere overnight. On the day of the experiment, cells were washed twice with Dulbecco’s PBS and lifted using prewarmed 1× versene solution (Gibco, 15040066). Cells were counted in HBSS (Gibco, 14025092) and then resuspended in stimulation buffer prepared according to the manufacturer’s instructions and adjusted to pH 7.2 using 1 M sodium hydroxide. Cells were added to the plate at a density of 1500 cells per well in white opaque 384-well assay ready microplates containing 100 nl of 10 mM compound in DMSO. Cells were stimulated for 30 min at RT, then lysed and incubated with detection reagents for 1 hour in the dark at RT. Plates were read on BMG Labtech PHERAstar FSX (excitation, 337 nm; emission, 620 and 665 nm). Data analysis was performed using GraphPad Prism.

hGPR65 [1] = target: T3, hGPR65 (Homo sapiens, UniProt Q8IYL9); assay: cAMP detection in HeLa expression cell line, hGPR65; format: cell-based; conditions: for Emax: HeLa, relative to 100uM forskolin (100%) and DMSO (0%), read-out: hGPR Max Activity %; for activity for hGPR65 among prioritized molecules: 1.56 μM
T3 construct: expressed in transfected cells; host or cells: HeLa (ATCC CCL-2), lentiviral transduction, pLX317
T3 sequence (Q8IYL9 whole entry): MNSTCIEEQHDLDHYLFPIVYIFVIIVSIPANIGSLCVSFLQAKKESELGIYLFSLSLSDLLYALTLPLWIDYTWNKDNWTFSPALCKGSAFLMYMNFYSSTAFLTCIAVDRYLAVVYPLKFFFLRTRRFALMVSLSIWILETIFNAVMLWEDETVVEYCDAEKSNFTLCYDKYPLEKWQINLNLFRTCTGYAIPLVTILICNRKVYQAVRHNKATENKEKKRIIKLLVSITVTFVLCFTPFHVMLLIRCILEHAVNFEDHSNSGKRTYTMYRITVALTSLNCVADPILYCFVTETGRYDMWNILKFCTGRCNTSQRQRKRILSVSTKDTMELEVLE
How it was run: as §1

[2] = test system: GFP-expressing HeLa cells; assay: cAMP detection in HeLa expression cell line, GFP control; format: cell-based, human; conditions: Homo sapiens, HeLa, NA = no activity; for Emax: relative to 100uM forskolin (100%) and DMSO (0%), read-out: GFP Max Activity %
Protocol: as §2, §3

Lipophilicity (logD) = format: physicochemical; conditions: pH 7.4; pH7.4; read-out: LogD (pH7.4)
[3] = Solubility in phosphate buffer; format: physicochemical; conditions: read-out: Solubility
[4] = test system: GPR65 KO HeLa cells + pLX empty vector; assay: cAMP detection, GPR65 KO HeLa + empty pLX vector (null control); format: cell-based, human; conditions: HeLa GPR65 KO + pLX, pH 7.1, 30 min, normalized to DMSO and 100 μM forskolin
Protocol: (§4) The Lance Ultra cAMP Kit (PerkinElmer, TRF0264) was used for cAMP detection, and included the following reagents: ULight anti-cAMP antibody, Eu-cAMP tracer, 7.5% BSA Stabilizer solution, and cAMP detection buffer. Stimulation buffer was prepared as described by the kit manufacturer as follows: Hanks buffered saline solution (HBSS, Life Technologies, 14025-126) containing 0.5 mM IBMX (3-isobutyl-1-methylxanthine, Sigma-Aldrich, I7018) and buffered with 1 M Hepes (15630-080). Stimulation buffer was then adjusted to pH 7.1 using 12 N HCl. HeLa cells were lifted using Versene and then suspended at 2.5 × 10^5 cells/ml in stimulation buffer. Cells were then plated at 20 μl per well (5000 cells per well) in white, opaque OptiPlate 384-well MicroPlates (PerkinElmer, 6007299) using a Thermo Fisher Scientific Combi liquid dispenser. Compounds, stored at 5 mM in DMSO for the primary screen, or in a range of concentrations from 39 μM to 20 mM for dose curves, were transferred by the CyBio CyBi-Well Vario pin transfer tool with 100-nl pins (V&P FP1NS50H, 50-nl slot, 0.457-mm diameter, hydrophobic coated), into each assay well, 100 nl per well for a final assay concentration of 25 μM for the primary screen, or 195 nM to 100 μM for dose curves. Assay plates were then incubated at RT for 30 min. Eu-cAMP tracer was diluted 1:33 into detection buffer and the final solution then distributed into assay wells, 5 μl per well. ULight anti-cAMP antibody was diluted 1:100 into detection buffer, then distributed into assay wells, also 5 μl per well. Assay plates were then incubated at RT in the dark for 1 hour. Eu-cAMP tracer and Förster resonance energy transfer (FRET) emissions were then read using a PerkinElmer EnVision Multimode plate reader (ENVISION21040010), exciting each well at 320 nm [UV2 (TRF) 320 filter] and reading emissions at 615 nm (Europium 615 filter) and 665 nm (APC665 filter). Data analysis was performed using Genedata Screener and GraphPad Prism.
(§5) HeLa KO cell lines were generated using the px330 plasmid CRISPR system as previously described ([18]). Briefly, HeLa cells were transfected with a Cas9 vector containing a gene-specific single-guide RNA to target the GPR65 coding exon. Forty-eight to 72 hours after transfection, single clones were obtained through limiting dilution and then sequenced to validate the KO. Reconstituted cell lines were produced by transducing KO cells with empty lentivirus or lentivirus containing hGPR65 or mGPR65. After 48 hours, cells were treated with puromycin (3 μg/ml; InvivoGen, ant-pr-1) and resistant cells were used in experiments.

hGPR65 [5] = target: T3, hGPR65; assay: cAMP detection (Lance Ultra), GPR65 KO HeLa reconstituted with hGPR65; 21K screen dose confirmation; format: cell-based; conditions: HeLa GPR65 KO + hGPR65, pH 7.1, 30 min, normalized to DMSO and 100 μM forskolin; read-out: WT EC50
Protocol: as §4, §5

hGPR65-SmBiT = target: T4, hGPR65-SmBiT (Homo sapiens, UniProt Q8IYL9); assay: Nano-BiT target engagement, LgBiT-mGs recruitment to hGPR65-SmBiT in Expi293F cells; format: cell-based; conditions: isoproterenol treatment
T4 construct: expressed in transfected cells; host or cells: Expi293F (Gibco), transient transfection
T4 sequence (Q8IYL9 whole entry): as above
Protocol: Target engagement was measured in Expi293F (Gibco, 100044202) cells using the Nano-Glo Live Cell Assay System (Promega, N2011). Nano-BiT plasmids were cloned from GPR65-, GPR4-, and GPR68-Tango plasmids. GPR65-Tango (Addgene plasmid # 66370; http://n2t.net/addgene:66370; RRID:Addgene_66370), GPR4-Tango (Addgene plasmid # 66358; http://n2t.net/addgene:66358; RRID:Addgene_66358), and GPR68-Tango (Addgene plasmid # 66371; http://n2t.net/addgene:66371; RRID:Addgene_66371) were gifts from Bryan Roth. Expi293F cells were transfected 1 day before kinetics with 500 ng of each plasmid using ExpiFectamine 293 Transfection Kit (Gibco, A14525). After 24 hours, cells were collected, washed, and resuspended in room temperature 0.1% PBS-BSA, adjusted to pH 7.4 using 1 M NaOH. Cells were transferred to white opaque 96-well microplates (100 μl per well, PerkinElmer, 6005290), followed by addition of the Nano-Glo Live Cell Reagent (25 μl per well). Baseline luminescence was measured for 10 cycles (1 cycle = 90 s) before adding compounds. All luminescence measurements were made on BMG Labtech PHERAstar FSX. Data analysis was performed using GraphPad Prism.

[6] = 2nd mGPR column pair, NA = no activity
[7] = first pair of columns, pH 7.2, 30 min
[8] = second pair of columns, pH 7.2, 30 min
[9] = 1st hGPR column pair, NA = no activity
[10] = 2nd hGPR column pair, NA = no activity
[11] = hGPR EC50 (uM), NA = no activity

Compound | Emax (mGPR65; [6]) | Emax (mGPR65; NA = no activity) | EC50 (mGPR65; [6]) | EC50 (mGPR65; [7]) | EC50 (mGPR65; [8]) | EC50 (mGPR65; NA = no activity) | cAMP activity, mGPR65 (mGPR65) | Emax (hGPR65 [1]; [9]) | Emax (hGPR65 [1]; [10]) | EC50 (hGPR65 [1]; [11]) | EC50 (hGPR65 [1]; hGPR EC50 (uM), pH 7.2, 30 min) | EC50 (hGPR65 [1]; hGPR EC50, NA = no activity) | EC50 (hGPR65 [1]; hGPR EC50, pH 7.2, 30 min) | cAMP activity, hGPR65 (hGPR65 [1]; pH 7.2) | logD (Lipophilicity (logD)) | solubility [3] | EC50 [4] | EC50 (hGPR65 [5]) | other results
COCc1ccc(-c2cc(O)n3ncc(C(=O)Nc4ccc(C(C)C)cc4)c3n2)cc1 [BRD2166, COCc1ccc(cc1)-c1cc(O)n2ncc(C(=O)Nc3ccc(cc3)C(C)C)c2n1] | 31.2% | 39.3% | 0.347 µM | 0.618 µM | 0.372 µM | 0.362 µM | at least 40% | 75% | 73.7% | 2.08 µM | 2.94 µM | 2.12 µM | 2.85 µM | at least 40% |  |  |  |  | cAMP relative to DMSO in the hGPR4 cells (human GPR4 (hGPR4); highest concentration tested): decrease in cAMP; cAMP production relative to BRD2813, hGPR65 (hGPR65 [1]; pH 7.2): little effect on cAMP production
Cc1ccc(NC(=O)c2cnn3c(O)cc(-c4ccc(F)c(Cl)c4)nc23)cc1 [BRD5067, O=C(NC1=CC=C(C)C=C1)C2=C3N(N=C2)C(O)=CC(C4=CC=C(F)C(Cl)=C4)=N3] | 37.6% | 41.4% | 0.537 µM | 0.449 µM | 0.23 µM | 0.328 µM | at least 40% | 74.6% | 69.2% | 0.232 µM | 0.534 µM | 0.583 µM | 0.554 µM | at least 40% | > 4.89 | < 1.56 µM |  |  | Emax ([2]; 2nd GFP column pair): 1.17%; EC50 (human GPR4 (hGPR4); GPR4 EC50 (uM)): 0.494 µM; EC50 (human GPR4 (hGPR4); GPR4 EC50, second pair of columns): 0.687 µM; cAMP induction in the hGPR4 cell line (human GPR4 (hGPR4); pH 7.2): additionally induced cAMP
Cc1ccc(NC(=O)c2cnn3c(O)cc(-c4ccc(COC(C)C)cc4)nc23)cc1F [BRD5078, O=C(NC1=CC=C(C)C(F)=C1)C2=C3N(N=C2)C(O)=CC(C4=CC=C(COC(C)C)C=C4)=N3] | 51.5% | 53.6% | 0.944 µM | 0.477 µM | 0.29 µM | 0.332 µM | at least 40% | 80.5% | 73.3% | 0.229 µM | 0.347 µM | 0.351 µM | 0.264 µM | at least 40% | > 4.96 | < 1.56 µM |  |  | activity for mGPR65 among prioritized molecules (mGPR65): highest activity; activity for hGPR65 (hGPR65 [1]): strong activity for hGPR65; activity for hGPR65 among prioritized molecules (hGPR65 [1]; pH 7.2): highest activity
Cc1ccc(NC(=O)c2cnn3c(O)cc(-c4ccc(COC(C)C)cc4)nc23)cc1Cl [BRD5079, O=C(NC1=CC=C(C)C(Cl)=C1)C2=C3N(N=C2)C(O)=CC(C4=CC=C(COC(C)C)C=C4)=N3] | 48.8% | 57.5% | 0.276 µM | 0.345 µM | 0.591 µM | 0.604 µM | at least 40% | 81.1% | 82.5% | 0.428 µM | 0.348 µM | 0.564 µM | 0.417 µM | at least 40% | > 4.23 | < 1.56 µM |  |  | EC50 ([2]; 1st GFP column pair): 4310 nM; Emax ([2]; 1st GFP column pair): 1.78%; EC50 ([2]; 2nd GFP column pair): 1210 nM; Emax ([2]; 2nd GFP column pair): 2.88%; activity for mGPR65 among prioritized molecules (mGPR65): highest activity; activity for hGPR65 (hGPR65 [1]): strong activity for hGPR65; activity for hGPR65 among prioritized molecules (hGPR65 [1]; pH 7.2): highest activity
Cc1cc2c(cc1-c1cncn1CCN(C)C1CCCC1)n(C)c(=O)n2C [BRD-K91081402-001-02-5] |  |  |  |  |  |  |  |  |  |  |  |  |  |  |  |  | > 100000 nM | > 100000 nM | 
O=C(c1cc2c([nH]c1=O)CCC2)N1CCN(c2ccnc3cc(Cl)ccc23)CC1 [BRD-K91175373-001-02-0] |  |  |  |  |  |  |  |  |  |  |  |  |  |  |  |  | 16900 nM | 20100 nM | 
Cn1cc(C(=O)c2ccc(F)cc2)c2ccnc(Cl)c21 [BRD-K96864761-001-02-4] |  |  |  |  |  |  |  |  |  |  |  |  |  |  |  |  | 44500 nM | 48100 nM | 
CC(C)NCC(O)c1ccc(O)c(O)c1 (stereo not shown) [isoproterenol, reference compound] |  |  |  |  |  |  |  |  |  |  |  |  |  |  |  |  |  |  | luminescence in hGPR65-SmBiT/LgBiT-mGs cells (hGPR65-SmBiT): did not elicit a change in luminescence
